# Experimental data taken from US7902187B2, “6-substituted 2-(benzimidazolyl)purine and purinone derivatives for immunosuppression” (Wyeth LLC, priority 2006, dated 2011).
# Molecular target: T1, Jak3 (Homo sapiens, UniProt P52333)
# T1 construct: A fragment encoding the catalytic domain of Jak3 (508aa to 1124aa) was ligated with GST at 5′ end; made in house; host or cells: Sf9 insect cells (baculovirus, pFastBac 1)
# T1 sequence (P52333 508-1124): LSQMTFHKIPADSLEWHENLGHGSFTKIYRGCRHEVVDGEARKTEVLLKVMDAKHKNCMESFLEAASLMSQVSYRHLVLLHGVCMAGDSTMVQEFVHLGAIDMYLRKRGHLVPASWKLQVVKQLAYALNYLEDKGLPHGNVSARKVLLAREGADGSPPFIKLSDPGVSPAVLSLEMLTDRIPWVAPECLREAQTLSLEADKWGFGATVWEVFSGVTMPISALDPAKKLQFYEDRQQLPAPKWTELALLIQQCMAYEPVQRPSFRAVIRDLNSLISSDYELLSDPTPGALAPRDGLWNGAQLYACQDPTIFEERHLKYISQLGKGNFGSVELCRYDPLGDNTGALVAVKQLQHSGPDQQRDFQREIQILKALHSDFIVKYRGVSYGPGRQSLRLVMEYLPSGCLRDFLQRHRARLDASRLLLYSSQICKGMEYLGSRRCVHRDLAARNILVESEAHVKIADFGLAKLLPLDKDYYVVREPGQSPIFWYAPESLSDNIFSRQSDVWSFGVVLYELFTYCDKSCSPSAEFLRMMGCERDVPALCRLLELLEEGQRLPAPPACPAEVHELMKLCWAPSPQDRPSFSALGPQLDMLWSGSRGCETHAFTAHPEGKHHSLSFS
# Assay: Jak3 Kinase Assay (HTRF)
# Format: biochemical
# Conditions: GST-Jak3 catalytic domain, 1 μM ATP, 60-min incubation; read-out: Jak3 Kinase, IC50 representation
# Experimental: Human Jak3 cDNA was amplified by PCR. A fragment encoding the catalytic domain of Jak3 (508aa to 1124aa) was ligated with GST at 5′ end. This fused GST-Jak3 DNA fragment was cloned into the EcoRI site of the donor plasmid pFastBac 1 (Life Technologies #10359-016). The transformation, transposition, and transfection of insect cells (Sf9) were performed according to the manufacture's instructions. The cell lysate containing recombinant GST-Jak3 was used in the kinase assay. Anti-GST antibody (10 μg/ml, Sigma #G1417) was coated onto a 384-well plate at 4° C. overnight. Cell lysate containing GST-Jak3 (1:100 dilution) was added to the anti-GST coated plates, and GST-Jak3 was captured by immobilized anti-GST antibody. Testing compounds and substrate mix (50 mM HEPES, pH 7, 0.5 mM Na3VO4, 25 mM MgCl2, 1 mM DTT, 0.005% BSA, 1 μM ATP, and 4.5 μg/ml biotinyl poly-Glu,Ala,Tyr) were added to the plate to initiate the reaction. After a 60-min incubation, the reaction was stopped by 4 mM EDTA, and phosphorylation of biotinyl poly-Glu,Ala,Tyr was detected using 17 μg/ml Cy5-streptavidin (Amersham, #PA92005) and 2.7 μg/ml Europium-conjugated anti-phosphotyrosine antibody (PerkinElmer #AD0069) using homogeneous time-resolved fluorescence (HTRF) technology.
row,Structure (SMILES),IC50 [nM]
1,N#Cc1ccc2ncn(-c3nc(N4CC(F)(F)C4)c4[nH]c(=O)n([C@H]5CC[C@H](O)CC5)c4n3)c2c1,< 100
2,N#Cc1ccc2ncn(-c3nc(NCCCN4CCCCC4)c4[nH]c(=O)n(C5CCOCC5)c4n3)c2c1,< 100
3,Cn1c(=O)n([C@H]2CC[C@H](O)CC2)c2nc(-n3cnc4ccc(F)cc43)nc(N3CC[C@H](F)C3)c21,< 100
4,CN1CCN(c2nc(-n3cnc4ccc(C#N)cc43)nc3c2[nH]c(=O)n3C2CCOCC2)CC1,< 100
5,O=c1[nH]c2c(N3CCC3)nc(-n3cnc4ccc(F)cc43)nc2n1[C@@H]1CCOc2c(F)cccc21,< 100
6,CC(C)(C)OC(=O)N1CC(CNc2nc(-n3cnc4ccc(F)cc43)nc3c2[nH]c(=O)n3C2CCOCC2)C1,< 100
7,Cn1c(=O)n([C@H]2CC[C@H](O)CC2)c2nc(-n3cnc4ccc(F)cc43)nc(N3CCC(F)CC3)c21,< 100
8,Cn1c(=O)n([C@H]2CC[C@H](O)CC2)c2nc(-n3cnc4ccc(Cl)cc43)nc(N3CCC(F)(F)CC3)c21,< 100
9,COCCCCn1c(=O)[nH]c2c(N3CC(F)(F)C3)nc(-n3cnc4ccc(C#N)cc43)nc21,< 100
10,O=c1[nH]c2c(CO)nc(-n3cnc4ccc(F)cc43)nc2n1C1CCOc2ccccc21 (stereo not drawn),< 100
11,N#CCCCc1nc(-n2cnc3ccc(F)cc32)nc2c1[nH]c(=O)n2[C@@H]1CCOc2c(F)cccc21,< 100
12,Cc1ncccc1Cn1c(=O)[nH]c2c(N3CC(F)(F)C3)nc(-n3cnc4ccc(C#N)cc43)nc21,< 100
13,Cn1c(=O)n(C2CCOCC2)c2nc(-n3cnc4ccc(Cl)cc43)nc(N3CC(F)(F)C3)c21,< 100
14,N#Cc1ccc2ncn(-c3nc(N4CC(F)(F)C4)c4[nH]c(=O)n(Cc5cccnc5)c4n3)c2c1,< 100
15,O=C(O)c1nc(-n2cnc3ccc(F)cc32)nc2c1[nH]c(=O)n2C1CCOc2ccccc21 (stereo not drawn),< 100
16,NC(=O)c1nc(-n2cnc3ccc(F)cc32)nc2c1[nH]c(=O)n2C1CCOc2ccccc21 (stereo not drawn),< 100
17,CNC(=O)c1nc(-n2cnc3ccc(F)cc32)nc2c1[nH]c(=O)n2C1CCOc2ccccc21 (stereo not drawn),< 100
18,Cn1c(=O)n([C@H]2CC[C@H](O)CC2)c2nc(-n3cnc4ccc(F)cc43)nc(N3CCCCC3)c21,< 100
19,COCCCn1c(=O)[nH]c2c(N3CC(F)(F)C3)nc(-n3cnc4ccc(C#N)cc43)nc21,< 100
20,CO[C@H]1CC[C@H](n2c(=O)[nH]c3c(N4CC(F)(F)C4)nc(-n4cnc5ccc(C#N)cc54)nc32)CC1,< 100
21,N#CCNC(=O)c1nc(-n2cnc3ccc(F)cc32)nc2c1[nH]c(=O)n2C1CCOc2ccccc21 (stereo not drawn),< 100
22,N#Cc1ccc2ncn(-c3nc(N4CC(F)(F)C4)c4[nH]c(=O)n(CC5CCOC5)c4n3)c2c1 (stereo not drawn),< 100
23,O=c1[nH]c2c(Cl)nc(-n3cnc4ccc(F)cc43)nc2n1[C@@H]1CCOc2c(F)cccc21,< 100
24,O=C(c1nc(-n2cnc3ccc(F)cc32)nc2c1[nH]c(=O)n2C1CCOc2ccccc21)N1CCCCC1 (stereo not drawn),< 100
25,Cn1c(=O)n(C2CCOCC2)c2nc(-n3cnc4ccc(Cl)cc43)nc(NCC(F)(F)CCl)c21,< 100
26,Cn1c(=O)n([C@H]2CC[C@H](O)CC2)c2nc(-n3cnc4ccc(F)cc43)nc(N3CCC(F)(F)CC3)c21,< 100

# Continued, values first:
row,IC50 [nM],Structure (SMILES)
1,< 100,N#Cc1ccc2ncn(-c3nc(N4CCNCC4)c4[nH]c(=O)n(C5CCOCC5)c4n3)c2c1
2,< 100,N#Cc1ccc2ncn(-c3nc(N4CCC4)c4[nH]c(=O)n(C5CCOCC5)c4n3)c2c1
3,< 100,O=c1[nH]c2c(-c3cn[nH]c3)nc(-n3cnc4ccc(F)cc43)nc2n1C1CCOCC1
4,< 100,Cc1nc2c(-c3ccncc3)nc(-n3cnc4ccc(Cl)cc43)nc2n1C1CCOCC1
5,< 100,O=c1[nH]c2c(-c3ccncc3)nc(-n3cnc4ccc(Cl)cc43)nc2n1C1CCOCC1
6,< 100,N#Cc1ccc2ncn(-c3nc(NCC4CC4)c4[nH]c(=O)n(C5CCOCC5)c4n3)c2c1
7,< 100,CN1CCCN(c2nc(-n3cnc4ccc(F)cc43)nc3c2[nH]c(=O)n3C2CCOCC2)CC1
8,< 100,N#Cc1ccc2ncn(-c3nc(NC4CCC4)c4[nH]c(=O)n(C5CCOCC5)c4n3)c2c1
9,< 100,O=c1[nH]c2c(N3CCCCC3)nc(-n3cnc4ccc(F)cc43)nc2n1C1CCOCC1
10,< 100,CN(C)C(=O)CNc1nc(-n2cnc3ccc(F)cc32)nc2c1[nH]c(=O)n2C1CCOCC1
11,< 100,Cn1c(=O)n([C@H]2CC[C@H](O)CC2)c2nc(-n3cnc4ccc(C#N)cc43)nc(-c3ccncc3)c21
12,< 100,O=c1[nH]c2c(N3CCC(F)CC3)nc(-n3cnc4ccc(F)cc43)nc2n1C1CCOCC1
13,< 100,O=c1[nH]c2c(N3CCC(F)(F)CC3)nc(-n3cnc4ccc(F)cc43)nc2n1C1CCOCC1
14,< 100,COCCCNc1nc(-n2cnc3ccc(Cl)cc32)nc2c1[nH]c(=O)n2C1CCOCC1
15,< 100,CC(C)(C)OC(=O)N1CC(Nc2nc(-n3cnc4ccc(F)cc43)nc3c2[nH]c(=O)n3C2CCOCC2)C1
16,< 100,O=c1[nH]c2c(-c3ccncc3)nc(-n3cnc4ccc(F)cc43)nc2n1C1CCOCC1
17,< 100,O=c1[nH]c2c(N3CCCC(F)(F)C3)nc(-n3cnc4ccc(F)cc43)nc2n1C1CCOCC1
18,< 100,O=c1[nH]c2c(N3CC(F)(F)C(F)(F)C3)nc(-n3cnc4ccc(F)cc43)nc2n1C1CCOCC1
19,< 100,COc1ccc(-c2nc(-n3cnc4ccc(F)cc43)nc3c2[nH]c(=O)n3C2CCOCC2)cn1

row,IC50 [nM],Structure (SMILES)
1,< 100,CCc1noc(CNc2nc(-n3cnc4ccc(F)cc43)nc3c2[nH]c(=O)n3C2CCOCC2)n1
2,< 100,O=c1[nH]c2c(-c3cccnc3)nc(-n3cnc4ccc(F)cc43)nc2n1C1CCOCC1
3,< 100,O=c1[nH]c2c(N[C@@H]3CCC[C@@H]3O)nc(-n3cnc4ccc(F)cc43)nc2n1C1CCOCC1
4,< 100,O=c1[nH]c2c(Oc3ccncc3)nc(-n3cnc4ccc(F)cc43)nc2n1C1CCOCC1
5,< 100,O=c1[nH]c2c(NC3CCC3)nc(-n3cnc4ccc(F)cc43)nc2n1C1CCOCC1
6,< 100,O=c1[nH]c2c(-c3ccc(F)nc3)nc(-n3cnc4ccc(F)cc43)nc2n1C1CCOCC1
7,< 100,O=c1[nH]c2c(Oc3cccnc3)nc(-n3cnc4ccc(F)cc43)nc2n1C1CCOCC1
8,< 100,N#Cc1ccc2ncn(-c3nc(NC4CCCC4)c4[nH]c(=O)n(C5CCOCC5)c4n3)c2c1
9,< 100,N#CCNC(=O)c1nc(-n2cnc3ccc(F)cc32)nc2c1[nH]c(=O)n2C1CCOCC1
10,< 100,O=c1[nH]c2c(OC3CCC3)nc(-n3cnc4ccc(F)cc43)nc2n1C1CCOCC1
11,< 100,COc1ccc(-c2nc(-n3cnc4ccc(F)cc43)nc3c2[nH]c(=O)n3C2CCOCC2)cc1
12,< 100,N#Cc1ccc(-c2nc(-n3cnc4ccc(F)cc43)nc3c2[nH]c(=O)n3C2CCOCC2)cc1
13,< 100,O=c1[nH]c2c(-c3cncnc3)nc(-n3cnc4ccc(F)cc43)nc2n1C1CCOCC1
14,< 100,O=c1[nH]c2c(-c3ccccc3)nc(-n3cnc4ccc(F)cc43)nc2n1C1CCOCC1
15,< 100,CNC(=O)c1nc(-n2cnc3ccc(F)cc32)nc2c1[nH]c(=O)n2C1CCOCC1
16,< 100,CC(C)(C)NS(=O)(=O)c1cccc(-c2nc(-n3cnc4ccc(F)cc43)nc3c2[nH]c(=O)n3C2CCOCC2)c1
17,< 100,O=c1[nH]c2c(-c3cccc4[nH]ccc34)nc(-n3cnc4ccc(F)cc43)nc2n1C1CCOCC1
18,100 to 1000,O=c1[nH]c2c(-c3ccncc3)nc(-n3cnc4ccc(OC(F)(F)F)cc43)nc2n1C1CCOCC1
